The values below come from US5057414A, “Method for the determination of the activity of serine proteases or serine protease inhibitors” (Behringwerke Aktiengesellschaft, priority 1987, dated 1991).

In assay [1] the test system is urokinase. Briefly: Comparison Experiment 1: conversion of chromogenic plasmin substrate / activity of urokinase in plasma with lysine and/or ammonium peroxodisulfate. Type of assay: biochemical. The protocol:
50μl of a plasma which is deficient in alpha2 -antiplasmin and has been prepared by immunoadsorption, as well as 1:2, 1:4 and 1:8 mixtures of this deficient plasma with normal plasma, where mixed with 200 μl or solution C (plasminogen activator reagent).
[…] of a 3 mM solution of H-D-Phe-Tyr-Arg-ANBA . 2 HCl in solution A and 500 µl of a plasminogen solution (2 CTA-U/ml) in solution A were added to the samples, the mixtures were incubated at 37° C. for 20 min, subsequently 100 μL of 8.5 M acetic acid were used to stop, and the extinction at 405 nm was determined. […] It is evident that addition of lysine increases the activity of urokinase by more than 100%.

Assay [2] has as its system plasmin. Briefly: Comparison Experiments 5, 6, 8: optimization of reagent concentration in functional PAI (PA) determination (generated plasmin activity). The assay is classed as biochemical. The protocol:
(§1) Preincubation of 50 μl of sample with 200 μl of a variant of solution C (plasminogen activator dissolved in basic buffer U) at 37° C. for five minutes was followed by addition of 200 μl of a variant of plasminogen reagent (F), composed of 100 mM Tris-HCl pH 8.4, crosslinked polypeptides 1%, ^R Triton×100 0.1%, 100 mM NaCl without tran-examic acid, NaN3 0.01 % (basic buffer U) with 10 CTA-U/ml plasminogen and 200 μl of distilled water with 10 mM chloramine T, 3 mM tranexamic acid to the reaction mixture. The mixture was incubated at 37° C. for 5 min, and 500 μl of 0.6 mM chromogenic plasmin substrate HD-Nva-CHA-Lys-pNA in 480 mM NaCl (or, as a substitute, 200 mM CsCl) were added. The resultant linear change in extinction, delta A/min, at 405 nm was followed.

The target of assay [3] is T1, plasmin and alpha2-antiplasmin (Homo sapiens, UniProt P00747).
T1 construct: native proteins
T1 sequence (P00747 97-810): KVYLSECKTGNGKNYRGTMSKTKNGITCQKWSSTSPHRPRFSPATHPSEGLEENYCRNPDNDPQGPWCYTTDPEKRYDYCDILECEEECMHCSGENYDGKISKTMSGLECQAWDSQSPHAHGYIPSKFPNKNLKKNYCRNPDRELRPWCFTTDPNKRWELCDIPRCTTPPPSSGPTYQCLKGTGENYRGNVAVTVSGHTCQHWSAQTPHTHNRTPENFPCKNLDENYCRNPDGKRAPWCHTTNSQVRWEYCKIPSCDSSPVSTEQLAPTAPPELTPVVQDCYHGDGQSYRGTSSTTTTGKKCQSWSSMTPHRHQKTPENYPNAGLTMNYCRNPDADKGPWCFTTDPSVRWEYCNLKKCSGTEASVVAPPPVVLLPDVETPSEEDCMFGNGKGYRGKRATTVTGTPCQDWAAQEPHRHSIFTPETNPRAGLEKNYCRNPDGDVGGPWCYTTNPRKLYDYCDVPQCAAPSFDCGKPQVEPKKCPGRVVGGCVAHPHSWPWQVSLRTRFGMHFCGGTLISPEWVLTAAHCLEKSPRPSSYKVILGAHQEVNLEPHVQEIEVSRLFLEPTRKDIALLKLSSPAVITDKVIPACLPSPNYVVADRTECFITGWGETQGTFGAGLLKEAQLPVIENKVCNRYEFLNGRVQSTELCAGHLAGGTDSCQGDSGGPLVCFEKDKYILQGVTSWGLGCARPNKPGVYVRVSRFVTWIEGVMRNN
T1 sequence (P08697 40-491 partner): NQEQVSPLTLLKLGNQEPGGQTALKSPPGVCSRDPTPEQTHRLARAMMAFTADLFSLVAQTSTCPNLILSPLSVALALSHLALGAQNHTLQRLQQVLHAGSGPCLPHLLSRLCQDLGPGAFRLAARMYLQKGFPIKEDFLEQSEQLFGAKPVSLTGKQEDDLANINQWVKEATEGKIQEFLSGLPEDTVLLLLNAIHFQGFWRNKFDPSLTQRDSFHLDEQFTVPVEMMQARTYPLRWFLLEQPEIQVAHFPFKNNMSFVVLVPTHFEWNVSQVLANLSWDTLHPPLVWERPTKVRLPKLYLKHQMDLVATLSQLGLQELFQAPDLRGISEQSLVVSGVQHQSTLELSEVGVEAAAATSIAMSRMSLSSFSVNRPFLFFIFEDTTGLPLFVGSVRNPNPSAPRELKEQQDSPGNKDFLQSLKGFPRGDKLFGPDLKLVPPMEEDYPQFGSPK
Nature of the assay: Slowing of the reaction between plasmin and alpha2-antiplasmin by omega-amino carboxylic acids. The assay is classed as biochemical. To be noted: lysine 10 to 3,000 mM, epsilon-aminocaproic acid 2 to 500 mM, tranexamic acid 0.1 to 50 mM.

Assay [4] relates to antithrombin III (AT III). Nature of the assay: Comparison Experiment 13: oxidative inactivation of antithrombin III. The assay is classed as biochemical. The note with it: 37° C., 15 min preincubation, pH 8.8. The protocol:
50 pmol of AT III in 50 μl of 50 mM Tris, 100 mM NaCl, 0.1% (w/v) Triton×100, pH 8.8 buffer, are preincubated with increasing quantities of chloramine T or hydrogen peroxide in 50 μl of distilled water at 37° C. for 15 min. Then 3 pmol of human alpha-thrombin, 2.5 IU of heparin and 2 KIU of aprotinin in 500 μl of 100 mM Tris, 150 mM NaCl, pH 8.2, are added, and the mixture is incubated at 37° C. for 5 min. Addition of 500 μl of 0.4 mM H-D-CHA-But-ArgpNA was followed by further incubation for 3 min (37° C.). The reaction was stopped by 100 μl of 8.5 M acetic acid, and the change in extinction at 405 nm was determined.

The subject of assay [5] is human alpha-thrombin. Nature of the assay: Comparison Experiment 13: oxidation resistance of thrombin. Type of assay: biochemical. To be noted: 500 nmol of chloramine T or 500 times the dose of H202.
In assay [6] the test system is plasminogen activator inhibitors. The note with it: Lawrence and Loskutoff, Biochemistry 25, 6351-6355, 1986; cited from earlier work.
In assay [7] the test system is plasmin. Nature of the assay: Comparison Experiment 11: effect of chloramine T and/or tranexamic acid on plasmin activity in the functional PAI assay. To be noted: for delta A/4 min: 405 nm. Type of assay: biochemical. The protocol:
as §1

Assay [8] concerns PAI1. Briefly: Example 5a: determination of PAI2 via preincubation with polycation-containing PA reagent. Type of assay: biochemical. The note with it: protamine chloride 100 U/ml or polylysine 500 μg/ml.
For assay [9], the system named is urokinase. Nature of the assay: Example 4: oxidation sensitivity of PAI1 and PAI2 (oxidation before addition of plasminogen activator reagent). The assay is classed as biochemical. The note with it: oxidation with chloramine T before addition of plasminogen activator reagent. The protocol:
50 μl of sample were incubated with 500 μl of solution A (basic buffer) and 50 μl of solution B (oxidizing reagent) at 37° C. for 10 min. Addition of 200 μl of solution C (plasminogen activator reagent) was followed by incubation at 37° C. for 5 min. The substrate conversion was started by addition of 200 μl of solution E (plasmin substrate reagent) and 100 μl of solution F (plasminogen reagent) and the mixture was incubated at 37° C. for 15 min. After addition of 100 μl of 8.5 M acetic acid, the extinction at 405 nm was determined.

As to `N.N.O=S(=O)(O)OOS(=O)(=O)O` [ammonium peroxodisulfate], the “dependence of the conversion of the chromogenic plasmin substrate on the quantity of alpha2-antiplasmin in the plasma” value in [1] (5% (NH4)2S2O8 in distilled water) is “does not depend on the quantity of alpha2 -antiplasmin”. As to `O=S(=O)(NCl)c1ccccc1` [chloramine B], in [2] (Comparison Experiment 5b), the “results with chloramine B in place of chloramine T” value is recorded as “the same as represented for chloramine T”. `NCCCCCC(=O)O` [epsilon-aminocaproic acid]: the “factor by which the reaction between plasmin and alpha2-antiplasmin is slowed down” value (“factor” below) in assay [3] is recorded as “at least 10”. In the case of `OO` [hydrogen peroxide], the “dose of hydrogen peroxide inactivating 50 pmol of AT III, as a multiple” value in assay [4] is reported as 500 times the dose. In addition, in [5], the “activity of thrombin at the dose inactivating AT III” value is “without the activity of thrombin being impaired”. The “concentration inactivating plasminogen activator inhibitors” value in assay [6] is “about 10 mM”.

Regarding `NCCCC[C@H](N)C(=O)O` [lysine], in [3], the “factor” value was “at least 10”. The “increase of the activity of urokinase” value in assay [1] (addition of lysine (10% lysine in distilled water)) is on record as “more than 100%”. In addition, the “increase in the extinction compared with the sample without omega-amino carboxylic acid” value in [1] (without use of an oxidizing agent) is given as “more than 100%”. As for `NC[C@H]1CC[C@H](C(=O)O)CC1` [tranexamic acid], the “increase in plasmin activity with alpha2-antiplasmin-deficient plasma compared with normal plasma” value in assay [7] is “about 70%”. Besides, the “delta A/4 min” value amounted to 829 mA in assay [7] (Normal plasma without alpha2-antiplasmin) and 488 mA in [7] (Normal plasma). The “tranexamic acid concentration at maximum” value in assay [2] (in the reaction mixture, basic buffer and PAI-deficient plasma) was in the range of 1 to 4 mM. For the same molecule, in [3], the “factor” value is given as “at least 10”.

On to polylysine, for which, in [8], the “PAI measured in presence of polycation in the plasminogen activator reagent” value is “only PAI2 (and not PAI1) was measured”. Same read-out and setting: next, protamine chloride: “only PAI2 (and not PAI1) was measured”.

B1: PAI2: placental inhibitors: these include the inhibitors released from the placenta and leukocytes (protein, UniProt P05120 1-415, looked up)
Plasminogen activator …: MEDLCVANTLFALNLFKHLAKASPTQNLFLSPWSISSTMAMVYMGSRGSTEDQMAKVLQFNEVGANAVTPMTPENFTSCGFMQQIQKGSYPDAILQAQAADKIHSSFRSLSSAINASTGNYLLESVNKLFGEKSASFREEYIRLCQKYYSSEPQAVDFLECAEEARKKINSWVKTQTKGKIPNLLPEGSVDGDTRMVLVNAVYFKGKWKTPFEKKLNGLYPFRVNSAQRTPVQMMYLREKLNIGYIEDLKAQILELPYAGDVSMFLLLPDEIADVSTGLELLESEITYDKLNKWTSKDKMAEDEVEVYIPQFKLEEHYELRSILRSMGMEDAFNKGRANFSGMSERNDLFLSEVFHQAMVDVNEEGTEAAAGTGGVMTGRTGHGGPQFVADHPFLFLIMHKITNCILFFGRFSSP
With B1, the sensitivity to oxidation entry in [9] was “less sensitive to oxidation”.
